From PubChem BioAssay (NCI)
Several values for one entry are separate records, joined by “and”; a condition that tells them apart may be missing. Equal entries are not always repeated.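 Cultured in 96-well plates, cells were exposed to test compound for 48 hours across five concentrations. Here, GI50 denotes the concentration required for 50% inhibition of growth. TGI: concentration producing complete growth inhibition.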

Legend:
Experiment in all cases: DTP human tumour cell line panel, 48 h
OVCAR-8 ovarian = tested on: OVCAR-8 ovarian
K-562 leukemia = tested on: K-562 leukemia
SW-620 colon = tested on: SW-620 colon
KM12 colon = tested on: KM12 colon
SK-MEL-28 melanoma = tested on: SK-MEL-28 melanoma
HCT-15 colon = tested on: HCT-15 colon
SF-539 CNS = tested on: SF-539 CNS
BT-549 breast = tested on: BT-549 breast
NCI/ADR-RES ovarian = tested on: NCI/ADR-RES ovarian
MDA-MB-231 breast = tested on: MDA-MB-231 breast

SMILES | TGI (OVCAR-8 ovarian) [µM] | TGI (K-562 leukemia) [µM] | TGI (SW-620 colon) [µM] | TGI (KM12 colon) [µM] | TGI (SK-MEL-28 melanoma) [µM] | TGI (HCT-15 colon) [µM] | TGI (SF-539 CNS) | GI50 (BT-549 breast) [µM] | TGI (BT-549 breast) [µM] | GI50 (OVCAR-8 ovarian) [µM] | GI50 (K-562 leukemia) [µM] | GI50 (NCI/ADR-RES ovarian) [µM] | TGI (NCI/ADR-RES ovarian) [µM] | GI50 (SW-620 colon) [µM] | GI50 (KM12 colon) [µM] | GI50 (SK-MEL-28 melanoma) [µM] | GI50 (HCT-15 colon) [µM] | GI50 (SF-539 CNS) [µM] | GI50 (MDA-MB-231 breast) [µM] | TGI (MDA-MB-231 breast) [µM]
COc1ccc2c(c1)[C@@H](NC(C)=O)CCc1cc(OC)c(OC)c(OC)c1-2 | 1.27 | > 100 | > 100 | 0.039 | > 100 | > 30.9 | < 0.0154 µM | – | – | – | – | – | – | – | – | – | – | – | – | –
O=C(O)/C=C/c1ccc(O)c(O)c1 | > 100 | > 100 | > 76.3 | > 100 | > 100 | > 100 | > 100 µM | – | – | – | – | – | – | – | – | – | – | – | – | –
Cc1c(C(Cc2ccccc2N(C)C(=O)/C=C\C(=O)O)c2c[nH]c3ccccc23)c2ccccc2n1C (stereo not given) | 29.4 | 54.7 | 34.5 | 29.1 | – | 29.3 | 31.8 µM | – | – | – | – | – | – | – | – | – | – | – | – | –
COc1ccc(C(=O)C(C(=O)CCC(=O)Nc2ccc(Cl)c(Cl)c2)c2ccc(OC)cc2)cc1 (stereo not given) | > 100 | > 100 | > 100 | > 100 | > 100 | > 100 | > 100 µM | – | – | – | – | – | – | – | – | – | – | – | – | –
N#CCCNc1nonc1-c1nc2ccccc2n1CC(=O)c1ccc(N)cc1 | > 100 | > 100 | > 100 | 1.28 | > 100 | > 100 | 1.19 µM | 0.0289 | 22.9 | 0.0354 | < 0.01 | < 0.01 | 0.0429 | 0.031 | < 0.0118 | 0.0351 | 0.0334 | 0.0252 | – | –
O=C([CH-]C(=O)c1ccccc1)c1ccccc1.O=C([CH-]C(=O)c1ccccc1)c1ccccc1.O=C([CH-]C(=O)c1ccccc1)c1ccccc1.[Ga+3] | > 100 | > 100 | > 100 | > 100 | > 100 | – | > 100 µM | – | – | > 100 | 30.9 | – | – | 65.1 | 91.5 | > 100 | – | 33.9 | – | –
COc1ccc(C2COc3c(ccc(OC)c3OC)C2=O)cc1OC (stereo not given) | > 100 | > 100 | > 100 | > 100 | > 100 | – | > 100 µM | – | – | – | – | – | – | – | – | – | – | – | – | –
CC[C@@]1(OP(=O)(O)O)C(=O)OCc2c1cc1n(c2=O)Cc2cc3ccccc3nc2-1 | – | > 100 | 9.44 | 3.47 | 57.7 | – | 0.537 µM and 0.373 µM | – | 4.55 | 0.427 | 0.572 | – | 0.715 | – | – | 1.86 | – | 0.0472 | – | –
CCN1CCN(CCC(=O)Nc2cccc(-n3cc(-c4ccncc4)c(-c4ccc(Cl)c(OC)c4)n3)c2)CC1 | 3.82 | – | 1.5 | 1.68 | 2.97 | 2.16 | 1.47 µM | 1.38 | 4.43 | 1.26 | – | 1.27 | 4.29 | 0.338 | 0.394 | 1.39 | 0.491 | 0.362 | 1.21 | 2.92
Cc1ccc(S(=O)c2ccccc2[N+](=O)[O-])cc1 (stereo not given) | > 100 | > 100 | > 100 | > 100 | > 100 | > 100 | > 100 µM | – | – | – | – | – | – | – | – | – | – | – | – | –
Cn1cc(C2NC(=O)c3ccccc3N2)c2ccccc21 (stereo not given) | > 100 | – | > 100 | 26.9 | > 100 | 8.48 | 6.87 µM | – | > 100 | – | – | – | 2.49 | – | – | – | – | – | – | > 100
CN(C)CC1CC/C(=C\c2ccc(Cl)c(Cl)c2)C1=O (stereo not given) | > 58.9 | > 27.1 | > 51.6 | 35.7 | > 84.8 | > 43.1 | > 55.7 µM | – | – | – | – | – | – | – | – | – | – | – | – | –
NC1=C(O)c2cccc3cccc(c23)C1=O | > 100 | > 100 | > 100 | > 100 | > 100 | > 100 | > 100 µM | – | – | – | – | – | – | – | – | – | – | – | – | –
O=C(O)/C=C\C(=O)Nc1ccc2c(c1)-c1ccccc1C2 | > 100 | > 100 | > 100 | > 100 | > 100 | > 100 | – | – | > 100 | – | – | – | > 100 | – | – | – | – | – | – | > 100
N#CC(C(=O)CCCC(=O)Nc1ccccc1[N+](=O)[O-])c1c(Cl)cccc1Cl (stereo not given) | > 100 | > 100 | > 100 | > 100 | > 100 | > 100 | > 100 µM | – | – | – | – | – | – | – | – | – | – | – | – | –
O=S1OC(c2ccccc2)(c2ccccc2)C(c2ccccc2)(c2ccccc2)O1 | > 100 | > 100 | > 100 | > 100 | > 100 | > 100 | > 100 µM | – | – | – | – | – | – | – | – | – | – | – | – | –
